We go through six molecules from patent publication US10787424B2, “Oxopiperazine helix mimetics for control of Hypoxia-Inducible gene expression” (NEW YORK UNIVERSITY, priority 2014, dated 2020).

Read-outs that look alike come from different tables or passages of the source.

What is called Kd is the concentration at which binding is half-saturated.

The test system of experiment [1] is triple-negative breast cancer cell line MDA-MB-231 xenograft. The following applies: MDA-MB-231 mouse xenograft; earlier study; cited from earlier work.
Experiment [2] deals with over 28,000 transcripts (genome-wide off-target regulation). The following applies: microarray gene expression profiling; earlier study; cited from earlier work.
In experiment [3] the target is T1, human p300 CH1 domain (p300-CH1) (Homo sapiens, UniProt Q09472).
T1 construct: human p300 CH1 domain (amino acid residues 323-423); GST (N, cleaved yes); made in house; host or cells: E. coli BL21(DE3)
T1 sequence (Q09472 323-423): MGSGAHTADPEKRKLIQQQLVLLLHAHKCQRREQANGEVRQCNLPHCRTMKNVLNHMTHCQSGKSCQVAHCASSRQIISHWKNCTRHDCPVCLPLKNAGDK
The experiment can be described thus: Tryptophan fluorescence binding assay for p300-CH1. The source says: The DNA sequence of the human p300 CH1 domain (amino acid residues 323-423) was subcloned into a pUC57 plasmid by Genscript, Inc. After transformation of JM109 bacteria (Promega) with the plasmid, it was amplified and purified. Then the gene of interest was subcloned between BamHI and EcoRI restriction sites of pGEX-4T-2 expression vector (Amersham).
The pGEX-4T-2-p300 fusion vector was transformed into BL21(DE3) competent E.coli (Novagen) in M9 minimal media with ^15NH4Cl as the primary nitrogen source. Protein production was induced with 1 mM IPTG at OD600 of 1 for 16 hours at 15° C. Production of the desired p300-CH1-GST fusion product was verified by SDS-PAGE. Bacteria were harvested and resuspended in the lysis buffer with 20 mM Phosphate buffer (Research Products International, Corp.), 100 μM DTT (Fisher), 100 μM ZnSO4 (Sigma), 0.5% TritonX 100 (Sigma), […] Pepstatin A (Research Products International, Corp.), […] Leupeptin A (Research Products International, Corp.), 500 μM PMSF (Sigma), and 0.5% glycerol at pH 8.0. Pellets were lysed by sonication and centrifuged at 4° C. and 20,000 rpm for 20 minutes. Fusion protein was collected from the bacterial supernatant and purified by affinity chromatography using glutathione Sepharose 4B beads (Amersham) prepared according to the manufacturer's directions. GST-tag was cleaved by thrombin and protein was eluted from resin. Collected fractions were assayed by SDS-PAGE gel; pooled fractions were treated with protease inhibitor cocktail (Sigma) and against a buffer containing 10 mM Tris, 50 mM NaCl, 2 mM DTT (Fisher), and 3 equivalents ZnSO4 at pH 8.0 to ensure proper folding (vide supra).
Relative affinities of OHMs for p300-CH1 were determined using a tryptophan fluorescence binding assay. Spectra were recorded on a QuantaMaster 40 spectrofluorometer (Photon Technology International) in a 10 mm quartz fluorometer cell at 25° C. with 4 nm excitation and 4 nm emission slit widths from 200 to 400 nm at intervals of 1 nm/s. Samples were excited at 295 nm and fluorescence emission was measured from 200-400 nm and recorded at 335 nm. OHM stock solutions were prepared in DMSO. Aliquots containing 1 μL DMSO stocks were added to 400 μL of 1 μM p300-CH1 in 50 mM Tris and 100 μM NaCl (pH 8.0). After each addition, the sample was allowed to equilibrate for 5 minutes before UV analysis. Background absorbance and sample dilution effects were corrected by titrating DMSO into p300-CH1 in an analogous manner. Final fluorescence is reported as the absolute value of [(F1-F0)/F1]*100, where F1 is the final fluorescence upon titration, and F0 is the fluorescence of the blank DMSO titration. EC50 values for each peptide were determined by fitting the experimental data to a sigmoidal dose-response nonlinear regression model in GraphPad Prism 5.0, and the dissociation constants, KD, were obtained from equation (2). KD=(RT×(1−FSB)+LST×FSB^2)/FSB−LST (2)
where: • RT=Total concentration of p300-CH1 • LST=Total concentration of fluorescent peptide • FSB=Fraction of bound fluorescent peptide Results and Discussion of Examples 1-8

In another experiment the test system is HIF signaling. As to conditions: cell culture, at micromolar levels; earlier study; cited from earlier work.
Another experiment addresses T2, p300-CH1 domain (Homo sapiens, UniProt Q09472).
T2 construct: human p300 CH1 domain (amino acid residues 323-423); GST (N, cleaved yes); made in house; host or cells: E. coli BL21(DE3)
As to conditions: 15N-labeled CH1; earlier study; cited from earlier work.

The mark [4] stands for this setting: binding affinity for p300-CH1, intrinsic tryptophan fluorescence assay (Table 8), read-out: Kd.

T2 sequence (Q09472 323-423): as above

With `CC(C)C[C@@H]1NCCN([C@@H](CC(C)C)C(=O)N2CCN([C@@H](CCC(N)=O)C(N)=O)C(=O)[C@@H]2C)C1=O` [OHM 21, LLAQ-NH2], the “effect on tumor levels” value in experiment [1] was “reduced tumor levels”. For the same molecule, in experiment [2], the “specificity on genome-wide scale” value is recorded as “remarkably specific”. The dissociation constant (Kd) in experiment [3] (setting [4]) is 530 ± 140 nM. In addition, the “downregulation of HIF signaling” value with HIF signaling is given as “efficiently downregulated HIF signaling”. Moreover, the “HSQC resonance shifts on addition of compound” value at p300-CH1 domain is on record as “consistent shifts in resonances of residues corresponding to the HIF1α816-824 binding pocket”.

Regarding `CC(C)C[C@@H]1NCCN([C@@H](C)C(=O)N2CCN([C@@H](CCC(N)=O)C(N)=O)C(=O)[C@@H]2C)C1=O` [OHM 22, LAAQ], the Kd in experiment [3] (setting [4]) was more than 10000 nM; in experiment [3] (p300-CH1, text value, read-out: Kd for p300-CH1) it was more than 30000 nM.

For the molecule `CCCC[C@@H](C(=O)N1CCN([C@@H](CCC(N)=O)C(N)=O)C(=O)[C@@H]1C)N1CCN[C@@H](CC(C)C)C1=O` [OHM 23, L(Nle)AQ], the Kd in experiment [3] (setting [4]) was determined as 30 ± 10 nM; in experiment [3] (cross-specificity, p300-CH1 (Table 9), read-out: p300 Kd) it was 30 ± 10 nM. In experiment [3] (p300, relative to OHM 21), the “enhancement in binding affinity over parent OHM 21” value is 13 fold.

For `CC(C)CC[C@@H]1NCCN([C@@H](CCC(C)C)C(=O)N2CCN([C@@H](CCC(N)=O)C(N)=O)C(=O)[C@@H]2C)C1=O` [OHM 25, (Hle)(Hle)AQ], in experiment [3] (setting [4]), the Kd amounted to 160 ± 60 nM.

In the case of `CC(C)C[C@@H]1NCCN([C@@H](CC(C)C)C(=O)N2CCN([C@@H](C)C(N)=O)C(=O)[C@@H]2C)C1=O` [OHM 26], the Kd in experiment [3] (setting [4]) is 620 ± 270 nM.

Consider `C[C@@H]1NCCN([C@@H](C)C(=O)N2CCN([C@@H](C)C(N)=O)C(=O)[C@@H]2C)C1=O` [OHM 27], for which, in experiment [3] (setting [4]), the dissociation constant Kd is more than 10000 nM.
